Measurements: patent US12428427B2, “Methods and compositions for targeting PD-L1” (Aligos Therapeutics, Inc., priority 2021, dated 2025)

Assays:
[1] = target: PDL1/PD1 (Homo sapiens, UniProt Q9NZQ7); test: PDL1/PD1 Binding Assay; details: PDL1-6×His 0.3 nM, PD1-Fc-Avi-Biotin 2.5 nM, Acceptor/Donor beads; read-out: PD-1/PD-L1 PPI IC50
Description: Compounds to be tested were serially diluted in DMSO, and further diluted in assay buffer (25 mM Hepes pH 7.4, 150 mM NaCl, 0.005% Tween 20, BSA 0.01%). Diluted compounds were added to the wells with final concentration of DMSO at 1%. PDL1-6×His protein was added to the wells, mixed well with compound. The plates were incubated for 30 min at room temperature. PD1-Fc-Avi-Biotin protein was added to the wells. Final concentration of PDL1 and PD1 protein is 0.3 nM and 2.5 nM, respectively. After a binding time of 30 min at room temperature, Anti-6×His Acceptor beads (final concentration 20 ug/ml) were added to the wells, and the incubation continued for 1 h. Streptavidin Donor beads (final concentration 20 ug/mL) were added at reduced light. The plates were sealed with foil and incubated in the dark for additional 1 h or overnight before reading on an Envision reader. The IC50 values were determined by fitting the curves using a four-parameter equation in Graphpad Prism 8.

[2] = target: T1, PD-1/PD-L1 interaction (Homo sapiens, UniProt Q9NZQ7); test: PD-1/PD-L1 NFAT Reporter Assay; type: cell-based; details: co-culture of PD-L1 expressing CHO cells and PD-1 overexpressing Jurkat cells, 6 hrs, NFAT luciferase
T1 construct: expressed in transfected cells; Jurkat cells (PD-1 plus NFAT-luciferase)
T1 sequence (Q9NZQ7 19-290): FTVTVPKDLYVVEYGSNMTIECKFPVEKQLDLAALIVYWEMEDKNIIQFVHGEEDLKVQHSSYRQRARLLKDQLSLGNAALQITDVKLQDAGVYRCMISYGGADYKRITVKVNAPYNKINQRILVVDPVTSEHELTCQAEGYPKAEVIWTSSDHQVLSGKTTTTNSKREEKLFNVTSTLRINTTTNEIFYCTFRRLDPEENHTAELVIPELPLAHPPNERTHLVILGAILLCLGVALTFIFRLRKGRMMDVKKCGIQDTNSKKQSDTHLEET
Description: Blocking the PD-1/PD-L1 interaction will release the inhibitory signal and results in TCR signaling and NFAT-mediated luciferase activity.
CHO cells expressing surface-bound anti-CD3 antibodies and PD-L1 were first seeded overnight and treated with the compounds. Jurkat cells overexpressing PD-1 and a luciferase construct under NFAT promoter were then immediately seeded on the monolayer of CHO cells. The co-culture was then incubated for 6 hrs at 37° C. Luciferase activity was assessed by adding the ONE-Glo reagent and measuring luminescence with a plate reader. EC50 values were determined from the fit of the dose-response curves.

Chain of PDL1/PD1 (Q9NZQ7 19-238 limits assumed): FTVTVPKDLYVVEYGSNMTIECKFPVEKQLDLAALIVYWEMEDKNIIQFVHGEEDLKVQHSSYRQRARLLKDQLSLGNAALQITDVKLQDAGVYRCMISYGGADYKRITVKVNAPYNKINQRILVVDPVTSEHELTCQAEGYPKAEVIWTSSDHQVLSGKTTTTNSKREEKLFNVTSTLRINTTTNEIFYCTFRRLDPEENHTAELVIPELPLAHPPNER

SMILES	IC50 [1]	EC50 [2]
COc1nc(-c2cccc(-c3cccc(NC(=O)c4ccnn(C)c4=O)c3Cl)c2Cl)ccc1CN1CCO[C@H](C(=O)O)C1 [Compound C-44]	≤ 10 nM	10 to 100 nM
COc1nc(-c2cccc(-c3cccc(NC(=O)c4ccnn(C)c4=O)c3C)c2C)ccc1CN[C@@H]1CCOC[C@H]1O [Compound C-70]	≤ 10 nM	10 to 100 nM
COc1nc(-c2cccc(-c3cccc(NC(=O)c4ccnn(C)c4=O)c3Cl)c2Cl)ccc1CN1CCN(C(=O)OC(C)(C)C)[C@@H](C(=O)O)C1 [Compound C-24]	≤ 10 nM	100 to 1000 nM
COc1nc(-c2cccc(-c3cccc(NC(=O)c4ccnn(C)c4=O)c3Cl)c2Cl)ccc1CN1C[C@H](C(=O)O)C(C)(C)C1 [Compound C-31]	≤ 10 nM	10 to 100 nM
COc1nc(-c2cccc(-c3cccc(NC(=O)c4ccnn(C)c4=O)c3Cl)c2Cl)ccc1CN[C@](C)(CO)C(=O)O [Compound C-12]	≤ 10 nM	10 to 100 nM
COc1nc(-c2cccc(-c3cccc(NC(=O)c4ccnn(C)c4=O)c3Cl)c2Cl)ccc1CN1C[C@@H](C(=O)O)C(C)(C)C1 [Compound C-48]	≤ 10 nM	100 to 1000 nM
COc1nc(-c2cccc(-c3cccc(NC(=O)c4ccnn(C)c4=O)c3C)c2Cl)ccc1CN1CC[C@@H](O)C1 [Compound C-67]	≤ 10 nM	≤ 10 nM
COc1nc(-c2cccc(-c3cccc(NC(=O)c4ccnn(C)c4=O)c3Cl)c2Cl)ncc1CN1CC(C(=O)O)C1 [Compound C-80]	≤ 10 nM	10 to 100 nM
COc1nc(-c2cccc(-c3cccc(NC(=O)c4ccnn(C)c4=O)c3Cl)c2Cl)ccc1CNC[C@@H](C)O [Compound C-4]	≤ 10 nM	≤ 10 nM
COc1nc(-c2cccc(-c3cccc(NC(=O)c4ccnn(C)c4=O)c3Cl)c2Cl)ccc1CN[C@@H](C)C(=O)O [Compound C-29]	≤ 10 nM	10 to 100 nM
COc1nc(-c2cccc(-c3cccc(NC(=O)c4ccnn(C)c4=O)c3C)c2Cl)ccc1CN1CC(O)C1 [Compound C-66]	≤ 10 nM	10 to 100 nM
COc1nc(-c2cccc(-c3cccc(NC(=O)c4ccnn(C)c4=O)c3Cl)c2Cl)ccc1CN1CC(C(=O)O)C1 [Compound C-9]	≤ 10 nM	≤ 10 nM
COc1nc(-c2cccc(-c3cccc(NC(=O)c4ccnn(C)c4=O)c3Cl)c2Cl)ccc1CNC[C@H](C)C(=O)O [Compound C-36]	≤ 10 nM	10 to 100 nM
COc1nc(-c2cccc(-c3cccc(NC(=O)c4ccnn(C)c4=O)c3Cl)c2Cl)ccc1CN1CCC[C@@H]1CC(=O)O [Compound C-33]	≤ 10 nM	10 to 100 nM
COc1nc(-c2cccc(-c3cccc(NC(=O)c4ccnn(C)c4=O)c3Cl)c2Cl)ccc1CNC[C@H](O)C(=O)O [Compound C-38]	≤ 10 nM	10 to 100 nM
COc1nc(-c2cccc(-c3cccc(NC(=O)c4ccnn(C)c4=O)c3Cl)c2Cl)ccc1CN1CC[C@@H](C(=O)O)C1 [Compound C-16]	≤ 10 nM	10 to 100 nM
COc1nc(-c2cccc(-c3cccc(NC(=O)c4ccnn(C)c4=O)c3Cl)c2Cl)ccc1CNCCO [Compound C-2]	≤ 10 nM	10 to 100 nM

SMILES	IC50 [1]	EC50 [2]
CCOC(=O)C1CN(Cc2cc(F)c(-c3cccc(-c4cccc(NC(=O)c5ccnn(C)c5=O)c4Cl)c3Cl)nc2OC)C1 [Compound C-77]	≤ 10 nM	10 to 100 nM
CCOC(=O)C1CN(Cc2ccc(-c3cccc(-c4cccc(NC(=O)c5ccnn(C)c5=O)c4Cl)c3Cl)nc2OC)C1 [Compound C-13]	≤ 10 nM	10 to 100 nM
COc1nc(-c2cccc(-c3cccc(NC(=O)c4ccnn(C)c4=O)c3Cl)c2Cl)ccc1CN1CC(CC(=O)O)C1 [Compound C-42]	≤ 10 nM	10 to 100 nM
COc1nc(-c2cccc(-c3cccc(NC(=O)c4ccnn(C)c4=O)c3Cl)c2Cl)ccc1CN1CC(F)(C(=O)O)C1 [Compound C-19]	≤ 10 nM	10 to 100 nM
COc1nc(-c2cccc(-c3cccc(NC(=O)c4ccnn(C)c4=O)c3C)c2Cl)ccc1CN1CC[C@H](O)C1 [Compound C-65]	≤ 10 nM	≤ 10 nM
COc1nc(-c2cccc(-c3cccc(NC(=O)c4ccnn(C)c4=O)c3Cl)c2Cl)cc(C)c1CNC[C@@H]1CCC(=O)N1 [Compound B-3]	≤ 10 nM	≤ 10 nM
COC(=O)C1CN(Cc2cc(F)c(-c3cccc(-c4cccc(NC(=O)c5ccnn(C)c5=O)c4Cl)c3Cl)nc2OC)C1 [Compound C-78]	≤ 10 nM	100 to 1000 nM
COc1nc(-c2cccc(-c3cccc(NC(=O)c4ccnn(C)c4=O)c3C)c2Cl)ccc1CNC1CCN(C(C)=O)C[C@@H]1O (stereo in doubt) [Compound C-69]	≤ 10 nM	≤ 10 nM
COc1nc(-c2cccc(-c3cccc(NC(=O)c4ccnn(C)c4=O)c3Cl)c2Cl)ccc1CNC[C@@H]1CCC(=O)N1 [Compound B-2]	≤ 10 nM	10 to 100 nM
COC(=O)C12CCC(CC1)N(Cc1ccc(-c3cccc(-c4cccc(NC(=O)c5ccnn(C)c5=O)c4Cl)c3Cl)nc1OC)C2 [Compound C-22]	≤ 10 nM	100 to 1000 nM
COc1nc(-c2cccc(-c3cccc(NC(=O)c4ccnn(C)c4=O)c3C)c2Cl)ccc1CN1CC[C@H](C(=O)O)C1 [Compound C-56]	≤ 10 nM	10 to 100 nM
COc1nc(-c2cccc(-c3cccc(NC(=O)c4ccnn(C)c4=O)c3Cl)c2Cl)ccc1CN1CC(C)(C(=O)O)C1 [Compound C-20]	≤ 10 nM	10 to 100 nM
COc1nc(-c2cccc(-c3cccc(NC(=O)c4ccnn(C)c4=O)c3Cl)c2Cl)ccc1CNC1CCC[C@@H]1C(=O)O (stereo partly drawn) [Compound C-39]	≤ 10 nM	10 to 100 nM
COc1nc(-c2cccc(-c3cccc(NC(=O)c4cc(Cl)n[nH]c4=O)c3Cl)c2Cl)cnc1CN1CC2(CCC(=O)N2)C1 [Compound A-3]	≤ 10 nM	100 to 1000 nM
COc1nc(-c2cccc(-c3cccc(NC(=O)c4ccnn(C)c4=O)c3C)c2Cl)cc(C)c1CN1CC(C(=O)O)C1 [Compound C-91]	≤ 10 nM	10 to 100 nM
CCOC(=O)C1(C)CN(Cc2ccc(-c3cccc(-c4cccc(NC(=O)c5ccnn(C)c5=O)c4Cl)c3Cl)nc2OC)C1 [Compound C-21]	10 to 100 nM	100 to 1000 nM
